Laboratory results taken from patent publication US10857211B2, “Genomic instability markers in Fanconi anemia” (Children's Hospital Medical Center, priority 2014, dated 2020).
“Also recorded” adds a separate entry of the source.

Tests used:
SCC47 cells [1] = assay: Matrigel-coated transwell invasion assay, SCC47 cells; type: cell-based, human; details: 100 uM NB-DNJ, 48 hrs; NTsh, FANCD2sh, FANCJsh
Method: (§1) FIGS. 23A and B show a pathway loss promotes invasion of squamous tumor cells. Indicated cells were treated with the indicated shRNA vectors and then plated in Matrigel-coated transwells. After 22 hours, invasive cells were quantified.
(§2) FIGS. 27I and J show NTsh-, FANCD2sh- and FANCJsh-treated SCC1 and SCC47 cells were cultured for 48 hrs in 100 uM NB-DNJ.
GM3 is the precursor of complex gangliosides (FIG. 27E), a key component of cell membranes, and enriched in lipid rafts (LRs). GM3 and its derivative GM1 localize to microdomains in apical epithelial membranes (68) and GM3 depletion was reported to blocked wound healing in diabetic mice (69). Further, GM3 was elevated in head and neck tumors (compared to adjacent normal tissue) (70) and in serum of HNSCC patients, and was predictive of tumor size and relapse (71). On the other hand, links between GM3 levels and FA have not yet been reported. Targeted analyses by UPLC-MS/MS in normal cutaneous (NIKS) and normal oral (NOKS) keratinocytes, as well as in UM-SCC1 cells verified GM3 regulation across the major carbohydrate component lengths (i.e., from d34:1 to d44:2) (FIG. 27F-H). […] To assess the functional significance of ganglioside accumulation in FA cells, the effect of a ganglioside synthesis inhibitor N-butyldeoxynojirimycin (NB-DNJ)72 was measured on invasion driven by FA pathway loss. […]

SCC47 cells [2] = assay: Cell growth in culture, SCC47 cells; type: cell-based, human; details: NB-DNJ
SCC1 cells [3] = assay: Matrigel-coated transwell invasion assay, SCC1 cells; type: cell-based, human; details: for invasion of FANCD2sh-treated SCC1 cells: Matrigel-coated transwells, 22 hours
Method: as §1
After 22 hours, invasive cells were quantified. Representative images are shown. Experiments were carried out in duplicate, and standard deviation calculated.
FA pathway loss promoted motility and invasion. To assess motility and invasiveness of FA-deficient cells, the Matrigel cell invasion assay was used. […] To rule out off-target effects of the lentivirus, an shRNA-resistant EGFP-FANCD2 construct was introduced. The EGFP-FANCD2 fusion protein was expressed in GFP+ cells (but not GFP− cells), and was sufficient to block invasion of FANCD2sh-treated SCC1 cells (FIG. 23B). Similarly, FANCA and FANCJ knockdown stimulated invasion in SCC1 cells (FIG. 23C). […] Gains in cellular motility were also observed for normal oral keratinocytes (NOKS): 1.3% of NTsh normal oral keratinocytes (NOKS) cells plated were able to migrate through matrigel. This invasion frequency doubled upon FANCD2 knockdown, highlighting potential relevance for FA loss for the motility of normal cells (data not shown).

SCC1 cells [4] = assay: Cell growth in culture, SCC1 cells; type: cell-based, human; details: for growth of FANCD2sh-treated SCC1 cells: NSC23766: 48 hours culture
GM3 = GM3 levels by targeted MS in NB-DNJ treated cells; type: cell-based, human; details: 100 uM NB-DNJ, 48 hrs; NTsh-, FANCD2sh- and FANCJsh-treated SCC1 and SCC47 cells
Method: as §2
GM3 is the precursor of complex gangliosides (FIG. 27E), a key component of cell membranes, and enriched in lipid rafts (LRs). GM3 and its derivative GM1 localize to microdomains in apical epithelial membranes (68) and GM3 depletion was reported to blocked wound healing in diabetic mice (69). Further, GM3 was elevated in head and neck tumors (compared to adjacent normal tissue) (70) and in serum of HNSCC patients, and was predictive of tumor size and relapse (71). On the other hand, links between GM3 levels and FA have not yet been reported. Targeted analyses by UPLC-MS/MS in normal cutaneous (NIKS) and normal oral (NOKS) keratinocytes, as well as in UM-SCC1 cells verified GM3 regulation across the major carbohydrate component lengths (i.e., from d34:1 to d44:2) (FIG. 27F-H). […] To assess the functional significance of ganglioside accumulation in FA cells, the effect of a ganglioside synthesis inhibitor N-butyldeoxynojirimycin (NB-DNJ)72 was measured on invasion driven by FA pathway loss. NTsh-, FANCD2sh- and FANCJsh-treated SCC1 and SCC47 cells were exposed to NB-DNJ (or vehicle), and subjected to Matrigel invasion assays (FIG. 23).

SCC1 cells [5] = assay: Phalloidin staining, quantification of intercellular projections in SCC1 cells; type: cell-based, human; details: FANCD2sh- and FANCJsh SCC1 cells, phalloidin stain
Source text: (§3) Percentages of cells in G2/M are indicated. […] Images were taken at the same magnification and exposure. […] Errors bars represent standard deviation; ** p<0.001; *** p<0.0001 (ANOVA).

Rac1 = assay: Rac1-GTP pulldown assay in SCC1 cells; type: cell-based, human
Source text: Members of the small GTPase Rho, Rac and CDC42 family of signaling molecules were key players in normal and transformed cell morphology, adhesion, motility, and invasion (46). […] Because Rac1 activation is reported to produce intercellular projections (47-48) similar to the ones noted in FA-deficient cells (FIG. 22E), the inventors carried out Rac1-GTP pull-downs to determine whether Rac1 is activated by FA pathway loss; FANCJsh SCC1 cells were used, since pDNA-PK activation in these cells was robust (FIG. 24A). […] To examine the requirement for Rac1 in cytoskeletal re-organization and invasion of FA-deficient cells, the specific Rac1 small molecule inhibitor NSC23766 was used (49-50). […] Thus, FA pathway loss leads to downstream activation of pDNA-PK and Rac1, and both are required for cytoskeletal rearrangements and invasion.

pDNA-PKcs = target: T1, pDNA-PKcs (Homo sapiens, UniProt P78527); assay: Western blot of pDNA-PKcs in SCC1 cells after bleomycin pulse; type: cell-based; details: 10 uM NU7026; 30-minute bleomycin pulse; FANCD2sh-, FANCJsh- and control (NTsh) SCC1 cells
T1 construct: Western blot analysis of NTsh-, FANCD2sh- and FANCJsh-treated SCC1 cells that were subjected to a 30-minute pulse of bleomycin; endogenous in cells; host or cells: UM-SCC1 (SCC1) HNSCC cells carrying NTsh, FANCD2sh or FANCJsh lentiviral shRNA
Source text: DNA-PK/Rac1 signaling occurred in response to FA pathway loss and was required for cytoskeletal re-organization and invasion. […] These defects are accompanied, under some circumstances, by a corresponding increase in the activity of error-prone non-homologous end joining (NHEJ) pathway components (27-28). Repair by NHEJ requires activation of the catalytic subunit of DNA-dependent protein kinase (DNA-PKcs) and subsequent autophosphorylation on serine […] (pDNA-PKcs). The inventors first determined whether DNA-PKcs signaling was activated and involved in FA-associated invasion. FANCD2sh- and FANCJsh-treatment of SCC1 cells stimulated pDNA-PKcs.

FA-deficient SCC = assay: Invasion of FA-deficient SCC, rescue by supplementation; type: cell-based
SCC1 cells [6] = assay: Flow cytometry-based cell-cycle analysis after melphalan, SCC1 cells; parameters: species or system human; details: FANCD2-deficient SCC1 cells compared to NTsh
Source text: as §3
FA pathway loss leads to cytoskeletal and membrane aberrations in HNSCC cells. A significant proportion of sporadic HNSCCs harbor somatic mutations in FA and FA-related genes (33). To test for biological effects of FA pathway loss, knockdown models of HNSCC were created using published lentiviral shRNA vectors (15, 41). First, the HPV-negative (UM-)SCC1 cell line was knocked down for FANCA, FANCD2, and FANCJ. Western blot analyses verified specific and efficient FA protein depletion (FIG. 22A). To verify that FANCD2 depletion induced classical FA phenotypes, DNA crosslinker sensitivity was quantified. […] This was similar to FA lymphoblasts and fibroblasts that also respond to melphalan with G2/M cell-cycle arrest (42-43). FANCA- and FANCJ-deficient SCC1 cells responded similarly, as did UMSCC6 and UMSCC47 HNSCC cell lines depleted for FA proteins (data not shown). Thus, FA knockdown in HPV-positive and -negative […] cells induced the classic FA DNA-crosslinker sensitivity phenotype.

For `CCCCN1C[C@H](O)[C@@H](O)[C@H](O)[C@H]1CO` [NB-DNJ, N-butyldeoxynojirimycin], the “invasion driven by FA loss, SCC47 cells” value (SCC47 cells [1]) was “selectively inhibited invasion driven by FA loss”, the “growth of SCC47 cells” value (SCC47 cells [2]) was “did not affect the growth” and the “invasion driven by FA loss, SCC1 cells” value (SCC1 cells [3]; 100 uM NB-DNJ, 48 hrs, NTsh, FANCD2sh, FANCJsh) was “selectively inhibited invasion driven by FA loss”. For the same compound, the “growth of SCC1 cells” value (SCC1 cells [4]; NB-DNJ) was “did not affect the growth” and the GM3 levels (GM3) was “reduced GM3 levels; also recorded: successfully repressed GM3 levels”.

For `CCN(CC)CCCC(C)Nc1nc(C)cc(Nc2ccc3nc(C)cc(N)c3c2)n1` (centres unmarked) [NSC23766], the “invasion of FANCD2sh-treated SCC1 cells” value (SCC1 cells [3]) was “suppressed cell invasion”, the “invasion of control cells” value (SCC1 cells [3]; NTsh control SCC1 cells) was “did affect invasion of control cells” and the “growth of FANCD2sh-treated SCC1 cells” value (SCC1 cells [4]) was “did not appear to affect growth”. The “number of long intercellular projections” value (SCC1 cells [5]) was “reduced the number of long intercellular projections”.

In the case of `O=c1cc(N2CCOCC2)oc2c1ccc1ccccc12` [NU7026], the “invasion of FANCD2sh-treated SCC1 cells” value (SCC1 cells [3]) is reported as “suppressed invasion”, the “growth of FANCD2sh-treated SCC1 cells” value (SCC1 cells [4]) is reported as “did not appear to affect growth” and the “active Rac1 (Rac1-GTP) in FA-deficient cells” value (Rac1; FANCJsh SCC1 cells) is reported as “significantly lowered active Rac1”. For the same compound, the “Rac1 activity in control cells” value (Rac1; NTsh control SCC1 cells) was “did not affect Rac1 activity” and the “pDNA-PKcs level (Western blot)” value (pDNA-PKcs) was “undetectable pDNA-PKcs”.

In the case of `CC(C)CCC[C@@H](C)[C@H]1CC[C@H]2[C@@H]3CC=C4C[C@@H](O)CC[C@]4(C)[C@H]3CC[C@]12C` [cholesterol], the “invasion of FA-deficient SCC” value (FA-deficient SCC) is reported as “rescued”.

For `Oc1ccc([C@H]2COc3cc(O)ccc3C2)cc1` [equol], the “invasion of FA-deficient SCC” value (FA-deficient SCC) was “rescued”.

With `N[C@@H](Cc1ccc(N(CCCl)CCCl)cc1)C(=O)O` [melphalan] the “proportion of cells in G2/M after melphalan” value (SCC1 cells [6]) was “increased proportion of cells in G2/M”.

In the case of `O=c1c(O)c(-c2ccc(O)c(O)c2)oc2cc(O)cc(O)c12` [quercetin], the “invasion of FA-deficient SCC” value (FA-deficient SCC) is reported as “rescued”.

NeuACα2-3Galβ1-4Glcβ1-1ceramide [GM3] was tested, and the “invasion of SCC1 cells with GM3 in cell media” value (SCC1 cells [3]; GM3 50 uM) was “doubled the invasion” and the “SCC1 invasion on GM3 addition to culture media” value (SCC1 cells [3]; particularly in FA-proficient cells, data not shown) was “stimulated SCC1 invasion”.
